Results published in ChEMBL document CHEMBL4665663, “Anti-atherosclerosis effect of HS donors based on nicotinic acid and chlorfibrate structures” (Bioorg Med Chem, 2019).
Active and inactive are the calls of the source. The calls are words filed in the database; no cut-off is given here.

What was measured:
[1] = Prodrug release in phosphate buffer containing L-cysteine assessed as H2S release by measuring H2S releasing half-life at 60 uM by methylene blue method; assay type: ADME
H9c2 = test: Cytotoxicity against rat H9c2 cells assessed as reduction in cell viability after 48 hrs by MTT assay; assay type: cell-based; conditions: H9c2, 48 h
HUVEC = test: Cytotoxicity against human HUVEC cells assessed as reduction in cell viability after 48 hrs by MTT assay; assay type: cell-based
RAW264.7 [2] = test: Cytotoxicity against mouse RAW264.7 cells assessed as reduction in cell viability after 48 hrs by MTT assay; assay type: cell-based; conditions: RAW264.7, 48 h
WI-38 = test: Cytotoxicity against human WI38 cells assessed as reduction in cell viability after 48 hrs by MTT assay; assay type: cell-based; conditions: WI-38, 48 h
RAW264.7 [3] = test: Anti-atherosclerotic activity in mouse RAW264.7 cells assessed as decrease in ox-LDL induced intracellular lipid accumulation by measuring reduction in total cholesterol level at 10 to 50 uM preincubated for 10 mins followed by ox-LDL stimulation and measured after 24 hrs by colorimetric method; assay type: functional, cell-based; conditions: dose microM 10-50, time 10.0 min
RAW264.7 [4] = test: Anti-atherosclerotic activity in mouse RAW264.7 cells assessed as decrease in ox-LDL induced intracellular lipid accumulation by measuring reduction in free cholesterol level at 10 to 50 uM preincubated for 10 mins followed by ox-LDL stimulation and measured after 24 hrs by colorimetric method; assay type: functional, cell-based; conditions: dose microM 10-50, time 10.0 min
RAW264.7 [5] = test: Antioxidant activity in mouse RAW264.7 cells assessed as reduction in ox-LDL induced ROS accumulation at 10 uM preincubated for 10 mins followed by ox-LDL stimulation and measured after 24 hrs by DCFH-DA staining based fluorescence microscopic analysis; assay type: functional, cell-based
RAW264.7 [6] = test: Antioxidant activity in mouse RAW264.7 cells assessed as reduction in ox-LDL induced oxidative stress by measuring decrease in MDA level at 10 to 50 uM preincubated for 10 mins followed by ox-LDL stimulation and measured after 24 hrs; assay type: functional, cell-based; conditions: dose microM 10-50, time 10.0 min
RAW264.7 [7] = test: Antioxidant activity in mouse RAW264.7 cells assessed as reduction in ox-LDL induced oxidative stress by measuring increase in SOD level at 10 to 50 uM preincubated for 10 mins followed by ox-LDL stimulation and measured after 24 hrs; assay type: functional, cell-based; conditions: dose microM 10-50, time 10.0 min
RAW264.7 [8] = test: Anti-inflammatory activity in mouse RAW264.7 cells assessed as decrease in ox-LDL induced inflammatory reaction by measuring decrease in TNF-alpha production at 10 to 50 uM preincubated for 10 mins followed by ox-LDL stimulation and measured after 24 hrs; assay type: functional, cell-based; conditions: dose microM 10-50, time 10.0 min
RAW264.7 [9] = test: Anti-inflammatory activity in mouse RAW264.7 cells assessed as decrease in ox-LDL induced inflammatory reaction by measuring increase in IL-10 production at 10 to 50 uM preincubated for 10 mins followed by ox-LDL stimulation and measured after 24 hrs; assay type: functional, cell-based; conditions: dose microM 10-50, time 10.0 min
RAW264.7 [10] = test: Inhibition of macrophage foam cell formation in mouse RAW264.7 cells assessed as reduction in ox-LDL induced red lipid droplets formation at 10 uM preincubated for 10 mins followed by ox-LDL stimulation and measured after 24 hrs by oil red O staining based inverted microscopy analysis; assay type: functional

| Structure (SMILES) | t1/2 [1] [min] | IC50 (H9c2) [µM] | IC50 (HUVEC) [µM] | IC50 (RAW264.7 [2]) [µM] | IC50 (WI-38) [µM] | Activity (RAW264.7 [3]) | Activity (RAW264.7 [4]) | Activity (RAW264.7 [5]) | Activity (RAW264.7 [6]) | Activity (RAW264.7 [7]) | Activity (RAW264.7 [8]) | Activity (RAW264.7 [9]) | inhibition (RAW264.7 [10]) |
| --- | --- | --- | --- | --- | --- | --- | --- | --- | --- | --- | --- | --- | --- |
| O=C(Oc1ccc(-c2cc(=S)ss2)cc1)c1cccnc1 | 3.3 | 627 | 562 | > 800 | 734 | – | – | – | – | – | – | – | – |
| COc1ccc(NC(=S)OCCNC(=O)C(C)(C)Oc2ccc(Cl)cc2)cc1 | 0.9 | 747 | 616 | > 800 | 780 | – | – | – | – | – | – | – | – |
| CC(C)(Oc1ccc(Cl)cc1)C(=O)NCCOC(=S)Nc1ccc(F)cc1 | 1.2 | > 800 | 773 | > 800 | > 800 | – | – | – | – | – | – | – | – |
| COc1ccc(NC(=S)OCCNC(=O)c2cccnc2)cc1 | 0.8 | 694 | 550 | > 800 | 781 | – | – | – | – | – | – | – | – |
| O=C(NCCOC(=S)Nc1ccc(F)cc1)c1cccnc1 | 1.5 | > 800 | 692 | > 800 | > 800 | – | – | – | – | – | – | – | – |
| O=C(NCCOC(=S)Nc1ccccc1)c1cccnc1 | 1.2 | > 800 | 724 | > 800 | > 800 | – | – | – | – | – | – | – | – |
| Cc1ccc(NC(=S)OCCNC(=O)c2cccnc2)cc1 | 0.9 | 726 | 567 | > 800 | > 800 | – | – | – | – | – | – | – | – |
| CC(C)(Oc1ccc(Cl)cc1)C(=O)Oc1ccc(C(N)=S)cc1 | 5.6 | 797 | 755 | > 800 | > 800 | – | – | – | – | – | – | – | – |
| O=C(O)c1cccnc1 | – | – | – | – | – | Active | Active | inactive | inactive | inactive | Active | Active | Active |
